≈ marks a conversion by molar mass, not a printed value. Where a name gives a salt, the structure may show the parent alone. Read-outs that look alike come from different tables or passages of the source.
Assays:
[1] = system: Histamine-asthma; assay: Activity on experimental asthma (in vivo test), Histamine-asthma; set-up: species or system guinea pig; settings: Cavia porcellus, sc, read-out: Histamine-asthma ED50
Protocol: (§1) Activity on experimental asthma (in vivo test)
(§2) A guinea pig was placed in a 11 liter glass chamber and exposed to the spasmogen by means of a nebulizer. […] Drugs were administered subcutaneously to animals 30 minutes before application of the spasmogen. […] ED50 was calculated by the method of Litchfield-Wilcoxon [J. Pharmacol. Exptl. Therap, 96, 99-113 (1949)].

[2] = system: Methacholine chloride-asthma; assay: Activity on experimental asthma (in vivo test), Methacholine chloride-asthma; set-up: species or system guinea pig; settings: Cavia porcellus, sc, read-out: Methacholine chloride-asthma Ed50
Protocol: as §1, §2

[3] = system: isolated bronchial smooth muscle; assay: Activity on isolated bronchial smooth muscle (in vitro test), histamine dihydrochloride as spasmogen (Anti-histamine); format: cell-based, guinea pig; settings: for EC50: Cavia porcellus, read-out: Anti-histamine ED50; for Anti-histamine relative activity: relative to control E (trimetoquinol) = 1.0, ED50 ratio, smaller = more potent
Protocol: (§3) Activity on isolated bronchial smooth muscle (in vitro test)
(§4) The trachea of a guinea pig was cut spirally and the isolated bronchial preparation was suspended in Magnus bath. Tyrode's solution was filled in a 50 ml bath and kept at 37° C. Then, 10-^5 g/ml of histamine dihydrochloride or methacholine chloride was added to a bath as spasmogen. After the contraction of the trachea reached a plateau, a test substance shown in the below-showing table was added to the preparation, cumulatively. The concentration producing 50% relaxation of the contracted bronchial muscle was designated as ED50.

[4] = molecular target: T1, β1 (Canis lupus familiaris, UniProt P79148); assay: β1-action: heart rate response (ΔHR) in anesthetized dogs; format: in vivo, Mongrel dogs; settings: intravenous
T1 construct: Mongrel dogs of either sex; from tissue; host or cells: heart of the living anesthetized mongrel dog (heart rate)
T1 sequence (P79148 whole entry): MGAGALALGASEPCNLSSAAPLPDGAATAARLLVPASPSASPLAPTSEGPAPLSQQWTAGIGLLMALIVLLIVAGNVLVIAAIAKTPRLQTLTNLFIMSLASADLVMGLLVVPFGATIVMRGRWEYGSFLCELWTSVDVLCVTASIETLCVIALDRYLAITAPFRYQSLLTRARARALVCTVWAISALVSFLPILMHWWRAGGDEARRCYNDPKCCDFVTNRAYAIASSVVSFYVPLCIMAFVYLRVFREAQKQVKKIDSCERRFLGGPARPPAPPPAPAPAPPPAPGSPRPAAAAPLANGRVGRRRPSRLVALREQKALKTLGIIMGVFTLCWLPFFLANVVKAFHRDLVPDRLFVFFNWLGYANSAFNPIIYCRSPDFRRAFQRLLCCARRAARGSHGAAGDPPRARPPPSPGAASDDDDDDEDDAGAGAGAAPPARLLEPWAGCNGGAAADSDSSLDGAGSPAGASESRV
Protocol: Mongrel dogs of either sex weighing about 10 Kg were anesthetized with pentobarbital Na, 30 mg/Kg intravenously. Arterial blood pressure was measured from a cannula in the right femoral artery and the pulse pressure used to trigger a ratemeter for a record of heart rate. (β1.action). Intravenous injections were made through a cannula in a femoral vein, and ED50bpm values were obtained from the does-response (ΔHR) curves. ED50bpm vs. ED50 ratios mean its own selectivity.

[5] = system: isolated bronchial smooth muscle; assay: Activity on isolated bronchial smooth muscle (in vitro test), methacholine chloride as spasmogen (Anti-methacholine Chloride); format: cell-based, guinea pig; settings: for EC50: Cavia porcellus, read-out: Anti-methacholine Chloride ED50; for Anti-methacholine Chloride relative activity: relative to control E (trimetoquinol) = 1.0, ED50 ratio, smaller = more potent
Protocol: as §3, §4

[6] = system: β1 /β2; assay: Selectivity (ratio of β1/β2), ED50bpm vs. ED50 in anesthetized dogs; format: in vivo, Mongrel dogs
[7] = molecular target: T2, β2 (Canis lupus familiaris, UniProt P54833); assay: β2-action: inhibition of histamine-induced increase in bronchial resistance in anesthetized dogs; format: in vivo, Mongrel dogs; settings: dog, intravenous, cumulative, 5 minutes before histamine 10 μg/Kg i.v.
T2 construct: Mongrel dogs of either sex; from tissue; host or cells: airways of the living anesthetized mongrel dog (bronchial resistance)
T2 sequence (P54833 whole entry): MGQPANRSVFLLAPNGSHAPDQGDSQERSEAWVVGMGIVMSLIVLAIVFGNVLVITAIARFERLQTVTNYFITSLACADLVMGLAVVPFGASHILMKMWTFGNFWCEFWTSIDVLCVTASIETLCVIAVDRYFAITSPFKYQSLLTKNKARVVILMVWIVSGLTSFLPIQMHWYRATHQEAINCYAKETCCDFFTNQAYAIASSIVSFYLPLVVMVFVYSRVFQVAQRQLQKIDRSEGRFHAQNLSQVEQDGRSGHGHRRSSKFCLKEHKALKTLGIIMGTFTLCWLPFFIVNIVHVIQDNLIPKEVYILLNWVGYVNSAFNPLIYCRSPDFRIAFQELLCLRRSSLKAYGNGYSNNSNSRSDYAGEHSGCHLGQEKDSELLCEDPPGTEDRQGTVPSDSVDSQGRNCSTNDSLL

[8] = subcutaneous, 30 minutes before 0.01% histamine dihydrochloride spray, Litchfield-Wilcoxon
[9] = concentration producing 50% relaxation of contracted bronchial muscle, 10^-5 g/ml histamine dihydrochloride, guinea pig trachea, 37° C
[10] = concentration producing 50% relaxation of contracted bronchial muscle, 10^-5 g/ml methacholine chloride, guinea pig trachea, 37° C
[11] = subcutaneous, 30 minutes before methacholine chloride spray, Litchfield-Wilcoxon

Row | SMILES | EC50 [3, 9] | EC50 [5, 10] | ED50 [1, 8] | ED50 [2] | EC50 [3] | Anti-histamine relative activity [3] | β1-action ED50bpm [4] | EC50 [5] | Anti-methacholine Chloride relative activity [5] | Selectivity (ratio of β1/β2) [6] | ED50 [1] | ED50 [2, 11] | ED50 [7]
1 | CC(Cc1ccc(O)cc1)NCC(O)c1ccc(O)c(NC=O)c1 (single isomer, unassigned) [Example 8, 3-formylamino-4-hydroxy-α-[N-(1-methyl-2-p-hydroxyphenylethyl)aminomethyl]benzyl alcohol [A] . 1/2 fumarate] | – | – | 1.9 µg/kg | 2.6 µg/kg | 0.00094 mg/L | 0.35 | 0.26 µg/kg | 0.011 mg/L | 0.52 | 8.38 | – | – | –
2 | COc1ccc(CC(C)NCC(O)c2ccc(O)c(NC=O)c2)cc1 (single isomer, unassigned) [Example 22, 3-formylamino-4-hydroxy-α-[N-(1-methyl-2-p-methoxyphenylethyl)aminomethyl]benzyl alcohol [A] . 1/2 fumarate] | – | – | – | – | 0.00046 mg/L | 0.17 | 0.72 µg/kg | 0.0046 mg/L | 0.22 | – | 3.6 µg/kg | – | –
3 | CC(C)NCC(O)c1ccc(O)c(N)c1 (stereo not drawn) [Known compound A, 3-amino-4-hydroxy-α-isopropylaminomethylbenzyl alcohol] | – | – | – | – | 0.3 mg/L (≈ 1.43 µM) | 111 | – | 3 mg/L (≈ 14.3 µM) | 143 | – | – | – | –
4 | CCOC(=O)Nc1cc(C(O)CNC(C)C)ccc1O (stereo not drawn) [Known compound B, 3-ethoxycarbonylamino-4-hydroxy-α-isopropylaminomethylbenzyl alcohol] | 5 mg/L (≈ 17.7 µM) | > 100 mg/L | – | – | – | 185 | – | – | > 4760 | – | – | – | –
5 | CC(C)(C)NCC(O)c1ccc(O)c(CO)c1 (stereo not drawn) [Known compound D, 4-hydroxy-3-hydroxymethyl-α-tert-butylaminomethylbenzyl alcohol] | 0.01 mg/L (≈ 0.0418 µM) | 0.096 mg/L (≈ 0.401 µM) | – | – | – | 3.7 | 7.0 µg/kg | – | 4.57 | 5.0 | – | – | 1.4 µg/kg
6 | COc1cc(C[C@@H]2NCCc3cc(O)c(O)cc32)cc(OC)c1OC [Known compound E, l-1-(3,4,5-trimethoxybenzyl)-6,7-dihydroxy 1,2,3,4-tetrahydroisoquinoline hydrochloride] | 0.0027 mg/L | 0.021 mg/L | 11.3 µg/kg | – | – | 1.0 | – | – | 1.0 | – | – | 12.4 µg/kg | –

More lines, main results first:

Row | EC50 [3, 9] | EC50 [5, 10] | SMILES | ED50 [1, 8] | ED50 [2] | EC50 [3] | Anti-histamine relative activity [3] | β1-action ED50bpm [4] | EC50 [5] | Anti-methacholine Chloride relative activity [5] | Selectivity (ratio of β1/β2) [6] | ED50 [1] | ED50 [2, 11] | ED50 [7]
7 | 1 mg/L | > 100 mg/L | CC(=O)Nc1cc(C(O)CNC(C)C)ccc1O.Cl (stereo not drawn) [3-acetylamino-4-hydroxy-α-(isopropylaminomethyl)benzyl alcohol hydrochloride] | – | – | – | 370 | – | – | > 4760 | – | – | – | –
8 | 0.00086 mg/L | 0.0089 mg/L | CC(CCc1ccc(O)cc1)NCC(O)c1ccc(O)c(NC=O)c1 (stereo not drawn) [Example 19, 3-formylamino-4-hydroxy-α-[N-(1-methyl-3-p-hydroxyphenylpropyl)aminomethyl] benzyl alcohol . 1/2 fumarate . mono-hydrate] | 1.4 µg/kg | – | – | 0.32 | 0.59 µg/kg | – | 0.42 | 12 | – | 8.1 µg/kg | –
9 | 0.09 mg/L (≈ 0.337 µM) | > 100 mg/L | CNC(=O)Nc1cc(C(O)CNC(C)C)ccc1O (stereo not drawn) [Known compound C, 4-hydroxy-3-(N'-methylureido)-α-isopropylaminomethylbenzyl alcohol] | – | – | – | 3.33 | – | – | > 4760 | – | – | – | –
10 | 0.0055 mg/L (≈ 0.026 µM) | 0.028 mg/L (≈ 0.133 µM) | CC(C)NCC(O)c1ccc(O)c(O)c1 (stereo not drawn) [Known compound F, α-(isopropylaminomethyl) protocatechuyl alcohol] | 15.7 µg/kg | – | – | 2.04 | – | – | 1.33 | – | – | 11.2 µg/kg | –

From patent US3994974A, “α-Aminomethylbenzyl alcohol derivatives” (Yamanouchi Pharmaceutical Co., Ltd., priority 1972, dated 1976)
